{
  "source": "patent US11191870B2",
  "about": "“Gel of sodium hyaluronate cross-linked by polyethylene glycol epoxy derivative for injection and preparation method thereof” (JENKEM TECHNOLOGY CO., LTD. (BEIJING), priority 2016, dated 2021)",
  "key": {"[1]": {"system": "cells L929", "test": "Median inhibitory concentration (IC50) of crosslinker compounds in cells L929", "assay_type": "cell-based", "conditions": "Mus musculus, L929, read-out: IC50 (median inhibitory concentration)", "procedure": "A cytotoxicity experiment is achieved through detecting the propagation rate of cells referring to standards for biological evaluation-in vitro cell toxicity test of medical instruments. In the experiment, an extraction method is adopted, a cell toxicity test is performed by adopting cells L929, a relative growth rate (RCR) of the cells is calculated through assaying the absorbance value by using an enzyme-linked immunoassay instrument, and the higher the RCR, the better the biocompatibility and the lower the toxicity."}, "[2]": {"system": "cells L929", "test": "Cytotoxicity experiment, extraction method, relative growth rate of cells", "conditions": "absorbance, higher RCR = lower toxicity, crosslinker compounds"}},
  "data": [
    {"compound": "C(COCCOCC1CO1)OCCOCCOCC1CO1", "note": "(stereo not drawn) [Ia, tetraethylene glycol diglycidyl ether]", "values": [
      {"measurement": "IC50", "setting": "[1]", "result": 0.127, "unit": "mM"},
      {"measurement": "RCR (relative growth rate of the cells), polyglycol diglycidyl ether crosslinkers", "setting": "[2]", "result": 62, "unit": "%"}
    ]},
    {"compound": "C(COCCOCCOCCOCCOCCOCC1CO1)OCCOCCOCCOCCOCCOCCOCC1CO1", "note": "(stereo not drawn) [Ib, dodecaethylene glycol diglycidyl ether]", "values": [
      {"measurement": "IC50", "setting": "[1]", "result": 2.3, "unit": "mM"},
      {"measurement": "RCR (relative growth rate of the cells), polyglycol diglycidyl ether crosslinkers", "setting": "[2]", "result": 89, "unit": "%"}
    ]},
    {"compound": "C(COCCOCCOCCOCCOCCOCCOCCOCCOCCOCCOCCOCC1CO1)OCCOCCOCCOCCOCCOCCOCCOCCOCCOCCOCCOCCOCC1CO1", "note": "(stereo not drawn) [Ic, tetracosaethylene glycol diglycidyl ether]", "values": [
      {"measurement": "IC50", "setting": "[1]", "result": 1.88, "unit": "mM"},
      {"measurement": "RCR (relative growth rate of the cells), polyglycol diglycidyl ether crosslinkers", "setting": "[2]", "result": 89, "unit": "%"}
    ]}
  ]
}
